The results in this text go back to ChEMBL document CHEMBL1671719, “Inhibition of antibiotic-resistant Staphylococcus aureus by the broad-spectrum dihydrofolate reductase inhibitor RAB1” (Antimicrob Agents Chemother, 2010).

Assay [1] has as its target Dihydrofolate reductase (Staphylococcus aureus, UniProt P0A017). Put plainly: Inhibition of Staphylococcus aureus wild type recombinant DHFR by MTS assay.
The target in assay [2] is Dihydrofolate reductase (Staphylococcus aureus, UniProt P0A017, F99Y). As to the kind of experiment: Inhibition of Staphylococcus aureus DHFR F98Y mutant by MTS assay.
Assay [3] has as its system Staphylococcus aureus. Put plainly: Ratio of Ki for TMP-resistant Staphylococcus aureus DHFR to Ki for wild type Staphylococcus aureus DHFR.
Assay [4] concerns Staphylococcus aureus. Put plainly: Antimicrobial activity against methicillin-resistant Staphylococcus aureus isolate NRS70 by broth microdilution method. The assay is classed as functional.
Assay [5] has as its system Staphylococcus aureus. As to the kind of experiment: Antimicrobial activity against methicillin-resistant Staphylococcus aureus isolate NRS1 by broth microdilution method. Format: functional.
The test system of assay [6] is Staphylococcus aureus. As to the kind of experiment: Antimicrobial activity against vancomycin-resistant Staphylococcus aureus VRS1 by broth microdilution method. The assay is classed as functional.
Assay [7] concerns Staphylococcus aureus. Put plainly: Antimicrobial activity against vancomycin-resistant Staphylococcus aureus VRS2 by broth microdilution method. The assay is classed as functional.
The subject of assay [8] is Staphylococcus aureus. As to the kind of experiment: Antimicrobial activity against vancomycin-resistant Staphylococcus aureus VRS3 by broth microdilution method. The assay is classed as functional.
For another assay, the system named is Francisella tularensis. Put plainly: Antimicrobial activity against Francisella tularensis Schu4 by broth microdilution method. The assay is classed as functional.
The test system of the next assay is Yersinia pestis. Put plainly: Antimicrobial activity against Yersinia pestis CO92 by broth microdilution method. Format: functional.
Another assay deals with Brucella abortus. As to the kind of experiment: Antimicrobial activity against Brucella abortus 2308 by broth microdilution method. Format: functional.
The next assay concerns Bacillus anthracis. Put plainly: Antimicrobial activity against Bacillus anthracis Ames by broth microdilution method. The assay is classed as functional.
The next assay has as its system Enterococcus faecalis. Put plainly: Antimicrobial activity against vancomycin-resistant Enterococcus faecalis ATCC 700802 by broth microdilution method. The assay is classed as functional.
Assay [9] relates to Staphylococcus aureus. Put plainly: microbe, parasite or virus in culture. The conditions noted are these: isolate NRS71.
For assay [10], the system named is Staphylococcus aureus. As to the kind of experiment: microbe, parasite or virus in culture. The conditions noted are these: isolate NRS123.
Assay [11] has as its system Staphylococcus aureus. Put plainly: Antimicrobial activity against methicillin-resistant Staphylococcus aureus. The assay is classed as functional.

In brackets after ≈: the same amount, converted by molar mass. Several values for one entry are separate records, joined by “and”; a condition that tells them apart may be missing. Identical values can stand only once.

As for `COc1ncc([C@H]2c3ccccc3C=NN2C(=O)/C=C/c2cc(Cc3cnc(N)nc3N)cc(OC)c2OC)cn1`, on Dihydrofolate reductase [1], the IC50 is 11.5 nM and 3.9 nM; the Ki was 3.5 nM. On Dihydrofolate reductase [2], this compound displayed an IC50 of 65.4 nM and a Ki of 6.5 nM. For the same compound, in the assay with Staphylococcus aureus [3], the Ratio IC50 is 5.7 and the Ratio Ki was 1.9.
With `COc1cc(Cc2cnc(N)nc2N)cc(OC)c1OC` [TRIMETHOPRIM], the MIC is 2 µg/mL (≈ 6.89 µM) in the assay with Staphylococcus aureus [4]; 2 µg/mL (≈ 6.89 µM) with Staphylococcus aureus [5]; above 256 µg/mL against Staphylococcus aureus [6]; above 256 µg/mL against Staphylococcus aureus [7]; 2 µg/mL (≈ 6.89 µM) with Staphylococcus aureus [8]; 16 µg/mL (≈ 55.1 µM) against Francisella tularensis. Moreover, the MIC with Yersinia pestis is at most 1 µg/mL; in the assay on Brucella abortus, 32 µg/mL (≈ 110 µM); against Bacillus anthracis it was above 256 µg/mL; against Enterococcus faecalis it was at most 1 µg/mL; against Staphylococcus aureus [9] it was 2 µg/mL (≈ 6.89 µM); against Staphylococcus aureus [10], 2 µg/mL (≈ 6.89 µM).
GENTAMICIN: the MIC in the assay on Staphylococcus aureus [4] was 1 µg/mL; in the assay on Staphylococcus aureus [5], above 16 µg/mL; in the assay on Staphylococcus aureus [6] it was above 16 µg/mL; in the assay with Staphylococcus aureus [7], above 16 µg/mL; in the assay with Staphylococcus aureus [8], above 16 µg/mL.
As to `CC1(C)S[C@@H]2[C@H](NC(=O)Cc3ccccc3)C(=O)N2[C@H]1C(=O)O` [PENICILLIN G], the MIC in the assay with Staphylococcus aureus [4] was above 2 µg/mL; with Staphylococcus aureus [5], above 8 µg/mL; against Staphylococcus aureus [6], above 2 µg/mL; against Staphylococcus aureus [7], above 2 µg/mL; against Staphylococcus aureus [8], above 2 µg/mL; against Staphylococcus aureus [9], above 2 µg/mL. In the assay with Staphylococcus aureus [10], this compound registered an MIC above 2 µg/mL.
For the compound `Cc1onc(-c2ccccc2)c1C(=O)N[C@@H]1C(=O)N2[C@@H]1SC(C)(C)[C@@H]2C(=O)O` [OXACILLIN], the MIC was above 16 µg/mL with Staphylococcus aureus [4]; above 32 µg/mL in the assay on Staphylococcus aureus [5]; above 16 µg/mL against Staphylococcus aureus [6]; above 16 µg/mL against Staphylococcus aureus [7]; above 16 µg/mL against Staphylococcus aureus [8]; above 16 µg/mL in the assay with Staphylococcus aureus [9]. The MIC in the assay on Staphylococcus aureus [10] is above 16 µg/mL.
With `CCC[C@H]1c2ccccc2C=NN1C(=O)/C=C/c1cc(Cc2cnc(N)nc2N)cc(OC)c1OC`, at Dihydrofolate reductase [1], the IC50 is 2.9 nM and 12.5 nM; the Ki stood at 0.9 nM. Moreover, on Dihydrofolate reductase [2], affinity was put at a Ki of 0.2 nM. In the assay with Staphylococcus aureus [3], the Ratio IC50 was found to be 0.6 and the Ratio Ki is 0.2.
On to `CCCC1c2ccccc2C=NN1C(=O)/C=C/c1cc(Cc2cnc(N)nc2N)cc(O)c1OC` (centres undefined), for which the MIC in the assay with Staphylococcus aureus [4] was at most 0.0625 µg/mL; in the assay with Staphylococcus aureus [5], at most 0.0625 µg/mL; against Staphylococcus aureus [6], 8 µg/mL (≈ 16.9 µM); against Staphylococcus aureus [7], 4 µg/mL (≈ 8.46 µM); against Staphylococcus aureus [8] it was at most 0.125 µg/mL; in the assay with Francisella tularensis, 1 µg/mL (≈ 2.12 µM). For the same compound, the MIC is 4 µg/mL (≈ 8.46 µM) against Yersinia pestis; 16 µg/mL (≈ 33.9 µM) against Brucella abortus; 1 µg/mL (≈ 2.12 µM) against Bacillus anthracis; 0.03 µg/mL (≈ 0.0635 µM) in the assay with Enterococcus faecalis; at most 0.0625 µg/mL against Staphylococcus aureus [9]; at most 0.0625 µg/mL with Staphylococcus aureus [10]. Further, the IC50 is 9.4 nM and 5.2 nM at Dihydrofolate reductase [1]; 8.8 nM and 22.6 nM at Dihydrofolate reductase [2]. In addition, the Ki at Dihydrofolate reductase [1] was 2.8 nM; on Dihydrofolate reductase [2], 0.9 nM. The Ratio IC50 with Staphylococcus aureus [3] stood at 0.9. Besides, the Ratio Ki with Staphylococcus aureus [3] is 0.3.
Turning to `CN(C)[C@@H]1C(O)=C(C(N)=O)C(=O)[C@@]2(O)C(O)=C3C(=O)c4c(O)cccc4[C@@](C)(O)[C@H]3C[C@@H]12` [TETRACYCLINE], the MIC against Staphylococcus aureus [5] and in the assay with Staphylococcus aureus [10] was 32 µg/mL (≈ 72 µM) throughout.
Regarding `CC[C@H]1OC(=O)[C@H](C)[C@@H](O[C@H]2C[C@@](C)(OC)[C@@H](O)[C@H](C)O2)[C@H](C)[C@@H](O[C@@H]2O[C@H](C)C[C@H](N(C)C)[C@H]2O)[C@](C)(O)C[C@@H](C)C(=O)[C@H](C)[C@@H](O)[C@]1(C)O` [ERYTHROMYCIN], the MIC is above 8 µg/mL with Staphylococcus aureus [4]; above 8 µg/mL against Staphylococcus aureus [6]; above 8 µg/mL against Staphylococcus aureus [7]; above 8 µg/mL with Staphylococcus aureus [8]; above 8 µg/mL in the assay with Staphylococcus aureus [9]; 0.5 µg/mL (≈ 0.681 µM) with Staphylococcus aureus [10].
With `COc1cc(-c2ccccc2)cc([C@@H](C)C#Cc2c(C)nc(N)nc2N)c1`, the IC50 at Dihydrofolate reductase [1] came to 61 nM; against Dihydrofolate reductase [2], 190 nM.
In the same order, the values of `COc1cc([C@H](C)C#Cc2c(C)nc(N)nc2N)ccc1-c1c(C)cccc1C` are 61 nM and 190 nM.
As to `CCC[C@@H]1C[C@@H](C(=O)N[C@@H]([C@H]2O[C@H](SC)[C@H](O)[C@@H](O)[C@H]2O)[C@H](C)Cl)N(C)C1` [CLINDAMYCIN], the MIC against Staphylococcus aureus [4] was above 4 µg/mL; in the assay with Staphylococcus aureus [6], above 4 µg/mL; against Staphylococcus aureus [7], above 4 µg/mL; against Staphylococcus aureus [8] it was above 4 µg/mL; with Staphylococcus aureus [9], above 4 µg/mL; in the assay on Staphylococcus aureus [10] it was 0.12 µg/mL (≈ 0.282 µM).
`COc1cc(Cc2cnc(N)nc2N)c2c(c1OC)OC(C1CC1)C=C2` (centres undefined): the MIC in the assay with Staphylococcus aureus [11] was at most 0.06 µg/mL.
For `CC(=O)NC[C@H]1CN(c2ccc(N3CCOCC3)c(F)c2)C(=O)O1` [LINEZOLID], the MIC in the assay on Staphylococcus aureus [4], in the assay on Staphylococcus aureus [7] and against Staphylococcus aureus [9] was 1 µg/mL (≈ 2.96 µM) in each case.
In the case of `CN[C@H](CC(C)C)C(=O)N[C@H]1C(=O)N[C@@H](CC(N)=O)C(=O)N[C@H]2C(=O)N[C@H]3C(=O)N[C@H](C(=O)N[C@H](C(=O)O)c4cc(O)cc(O)c4-c4cc3ccc4O)[C@H](O)c3ccc(c(Cl)c3)Oc3cc2cc(c3O[C@@H]2O[C@H](CO)[C@@H](O)[C@H](O)[C@H]2O[C@H]2C[C@](C)(N)[C@H](O)[C@H](C)O2)Oc2ccc(cc2Cl)[C@H]1O` [VANCOMYCIN], the MIC against Staphylococcus aureus [5] was 8 µg/mL (≈ 5.52 µM); against Staphylococcus aureus [6] it was above 256 µg/mL; in the assay with Staphylococcus aureus [7], 64 µg/mL (≈ 44.2 µM); with Staphylococcus aureus [8], above 32 µg/mL.
Regarding `Nc1ccnc(N)n1` [DIAMINOPYRIMIDINE], the results for the MIC against Staphylococcus aureus [5] and against Staphylococcus aureus [10] were 2 µg/mL (≈ 18.2 µM) and 0.5 µg/mL (≈ 4.54 µM), respectively.
Regarding `O=C(O)c1cn(C2CC2)c2cc(N3CCNCC3)c(F)cc2c1=O` [CIPROFLOXACIN], the MIC in the assay on Staphylococcus aureus [4] was 0.5 µg/mL (≈ 1.51 µM); against Staphylococcus aureus [6] it was above 16 µg/mL; against Staphylococcus aureus [7], above 16 µg/mL; in the assay on Staphylococcus aureus [8] it was above 16 µg/mL; against Staphylococcus aureus [9], above 16 µg/mL; against Staphylococcus aureus [10] it was 0.5 µg/mL (≈ 1.51 µM).
